Source: the NIST ThermoML archive (doi:10.1016/j.jct.2015.08.014)

Settings: Liquid; for electrical conductivity: Alternating current cell with electrodes; for viscosity: Capillary tube (Ostwald / Ubbelohde) method; for mass density: Vibrating tube method

CCCC[N+]1(C)CCCC1.N#CN=C=[N-] [1-butyl-1-methylpyrrolidinium dicyanamide]
electrical conductivity [S/m], 100 kPa
Settings	298.15 K	303.15 K	313.15 K	323.15 K
Frequency=0.0005 MHz	–	1.525	1.99	2.525
Frequency=0.001 MHz	–	1.526	2	2.526
Frequency=0.0015 MHz	–	1.526	2	2.527
Frequency=0.002 MHz	–	1.527	2	2.528
Frequency=0.0025 MHz	–	1.527	2	2.528
Frequency=0.003 MHz	–	1.527	2	2.528
Frequency=0.00347222 MHz	–	1.527	2	2.528
Frequency=0.004 MHz	–	1.527	2	2.529
Frequency=0.00446429 MHz	–	1.527	2	2.529
Frequency=0.005 MHz	–	1.527	2	2.529
Frequency=0.005454 MHz	–	1.527	2	2.529
Frequency=0.006 MHz	–	1.527	2	2.529
Frequency=0.00652174 MHz	1.317	1.527	2	2.529
Frequency=0.00694444 MHz	1.317	1.527	2	2.529
Frequency=0.0075 MHz	1.318	1.527	2	2.529
Frequency=0.008 MHz	1.318	1.527	2	2.529
Frequency=0.00857143 MHz	1.318	1.527	2	2.529
Frequency=0.00892857 MHz	1.318	1.527	2	2.529
Frequency=0.00961538 MHz	1.318	1.527	2	2.529
Frequency=0.01 MHz	1.318	1.527	2	2.529

101.33 kPa
Settings	electrical conductivity [S/m]	mass density [kg/m3]	viscosity [mPa·s]
298.15 K	1.317	1013.45	33.71
303.15 K	1.527	1010.64	28.53
308.15 K	1.75	1007.84	24.53
313.15 K	2	1005.06	21.07
318.15 K	2.25	1002.28	18.37
323.15 K	2.529	999.525	16.15
328.15 K	–	996.781	–
333.15 K	–	994.049	–
